The record followed here is publication PMC9011347, “Small-Molecule Inhibitors Targeting Lipolysis in Human Adipocytes” (Journal of the American Chemical Society, 2022).

The structures appear in SMILES notation.

Common to all, as to test: TAG hydrolase assay, Expi293 lysates expressing ATGL orthologue
Holding throughout (format): biochemical

For one test, the target named is T1, rat ATGL (Rattus norvegicus, UniProt P0C548).
T1 construct: host or cells: Expi293 cells, crude lysate
An excerpt:
(§1) We previously developed Atglistatin (Ai), a selective inhibitor of mouse ATGL,[31],[32] which is ineffective against human ATGL.[17] Ai acts as a competitive inhibitor targeting the minimal active domain of ATGL ranging from aa 1–254.[33] This domain is highly conserved in different mammalian species (∼90% identity, Table 1) and comprises the patatin-like domain, eponymous for all members of the patatin-like phospholipase domain-containing (PNPLA) protein family.[34] We first investigated the species selectivity of Ai by performing TAG hydrolase assays[35] with lysates from Expi293 cells expressing ATGL orthologues of different species. The activity of ATGL is strongly stimulated by the co-activator protein comparative gene identification-58 (CGI-58, also known as α/β hydrolase domain containing 5, ABHD5)[36] and can be suppressed by the inhibitory protein G0/G1 switch 2 (G0S2).[37] We therefore determined ATGL activity in the presence and absence of mouse CGI-58, mouse G0S2, and Ai. As shown in Figure 1a–i, all ATGL orthologues were expressed, enzymatically active, stimulated by mouse CGI-58, and inactivated by mouse G0S2. Ai inhibited mouse (Figure 1a), rat (Figure 1b), goat (Figure 1c), dog (Figure 1e), and marmoset ATGL (Figure 1f), but not pig (Figure 1d), rhesus monkey (Figure 1g), or human ATGL (Figure 1h).
(§2) Experimental details, materials, and methods
(§3) Expression of recombinant ATGL constructs and preparation of cell lysates. Expi293 cells were cultivated in Expi293 Expression Medium (GIBCO, Thermo Fisher Scientific, Waltham, USA) at standard conditions (37°C, 5% CO2, 95% humidified atmosphere, 125 rpm). DNA constructs containing ATGL from different species and chimeric ATGL variants in pcDNA3.1(+)myc-His C Vector were obtained from BioCat GmbH (Heidelberg, Germany). Cells were transfected with ExpiFectamine293 Transfection Kit (GIBCO) in Opti-Mem reduced serum medium (GIBCO) according to the manufacturer’s instructions. After 48 h, cells were harvested by centrifugation and washed three times with PBS. Cells were disrupted in buffer A (0.25 M sucrose, 1 mM EDTA, 1 mM dithiothreitol, 20µg/ml leupeptin, 2 µg/ml antipain, 1 µg/ml pepstatin, pH 7.0) by sonication (Virsonic 475, Virtis, Gardiner, USA). Nuclei and debris were removed by centrifugation at 1,000 g and 4°C for 10 min. Protein concentrations were determined using Bio-Rad protein assay (Bio-Rad 785, Bio-Rad Laboratories, Munich, Germany) using BSA as standard.
(§4) Expression and purification of mouse CGI-58. CGI-58 was expressed and purified as described 1. In brief, the coding sequence of mouse Cgi-58 was cloned into pHis-Sumo and co-transformed with the plasmid pTf16 expressing the chaperone Tig into E. coli BL21(DE3). Cells were cultured overnight at 37°C and 180 rpm in the presence of 40 µg/ml kanamycin and 34 µg/ml chloramphenicol. Thereafter, cells were transferred into fresh LB medium, grown until OD600 of 0.6, and expression was induced by the addition of 0.5 mM IPTG. After overnight incubation at 30°C, cells were harvested at 4,500 x g and 4°C for 20 min, washed in 1x PBS, and resuspended in lysis buffer (20 mM Tris/HCl pH 7.8, 300 mM NaCl, 30 mM imidazole, 0.1% IGEPAL CA-630, 3.5 mM β-mercaptoethanol, 20 µg/ml leupeptin, 2 µg/ml antipain and 1 µg/ml pepstatin). Cells were incubated with 1 mg/ml lysozyme at 4°C for 20 min, disrupted by sonication, and lysates were centrifuged at 30,000 x g and 4°C for 40 min. His-CGI-58 was purified from the supernatant using an ÄKTA pure system (Cytiva, Uppsala, Sweden) equipped with a 5 ml HisTrap […]
(§5) Expression and purification of mouse G0S2. Chemically competent E. coli ArcticExpress (DE3) cells were transformed with the pST50-SMT3-TEV-mG0S2-His expression plasmid, plated on LB agar plates containing 100 ampicillin, and incubated […] overnight at 37°C. The next day, 10 ml LB medium supplemented with 100 μg/ml ampicillin, 20 μg/ml gentamycin and 2% glucose were inoculated with a single colony and incubated overnight at 37°C. […]

The next test relates to marmoset ATGL.
Text: as §1, §2, §3, §4, §5

For another test, the target named is T2, mouse ATGL (Mus musculus, UniProt Q8BJ56).
T2 construct: host or cells: Expi293 cells, crude lysate
T2 sequence (Q8BJ56 whole entry): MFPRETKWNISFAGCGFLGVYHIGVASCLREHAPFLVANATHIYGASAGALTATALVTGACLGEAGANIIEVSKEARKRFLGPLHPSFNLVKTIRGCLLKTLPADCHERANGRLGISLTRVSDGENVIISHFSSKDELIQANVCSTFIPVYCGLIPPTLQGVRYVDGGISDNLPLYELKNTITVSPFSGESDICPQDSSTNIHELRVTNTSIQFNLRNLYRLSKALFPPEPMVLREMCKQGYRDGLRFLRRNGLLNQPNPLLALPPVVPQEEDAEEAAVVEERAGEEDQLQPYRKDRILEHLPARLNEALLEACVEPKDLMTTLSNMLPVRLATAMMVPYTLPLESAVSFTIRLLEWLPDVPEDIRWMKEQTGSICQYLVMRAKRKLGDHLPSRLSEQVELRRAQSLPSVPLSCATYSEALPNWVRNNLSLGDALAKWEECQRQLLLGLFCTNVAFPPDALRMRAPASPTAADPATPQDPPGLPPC
Text: as §1, §2, §3, §4, §5

A further test has as its system goat ATGL.
Text: as §1, §2, §3, §4, §5

In a further test the test system is dog ATGL.
Text: as §1, §2, §3, §4, §5

T1 sequence (P0C548 whole entry): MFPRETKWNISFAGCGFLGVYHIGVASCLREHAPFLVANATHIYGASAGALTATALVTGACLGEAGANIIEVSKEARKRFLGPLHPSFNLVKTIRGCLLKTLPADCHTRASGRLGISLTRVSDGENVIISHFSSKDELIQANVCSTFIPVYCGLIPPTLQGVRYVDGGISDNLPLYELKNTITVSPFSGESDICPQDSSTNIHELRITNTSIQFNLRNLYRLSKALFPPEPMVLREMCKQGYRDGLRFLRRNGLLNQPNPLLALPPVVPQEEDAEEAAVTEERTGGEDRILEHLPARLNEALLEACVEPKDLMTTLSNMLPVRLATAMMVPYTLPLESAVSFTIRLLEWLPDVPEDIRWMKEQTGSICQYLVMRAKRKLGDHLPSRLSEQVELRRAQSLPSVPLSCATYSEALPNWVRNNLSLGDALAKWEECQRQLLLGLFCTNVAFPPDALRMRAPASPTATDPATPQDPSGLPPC

For `CCOc1ccc(-c2cc(OC)cc(C(=O)OC(C)C)n2)cc1` [NG-497], the “reduction in TAG hydrolase activity” value on rat ATGL (NG-497 50 μM), in the test with marmoset ATGL (NG-497 50 μM), at mouse ATGL (NG-497 50 μM), in the test with goat ATGL (NG-497 50 μM) and with dog ATGL (NG-497 50 μM) was “less than 20%” in each case.
With `CN(C)C(=O)Nc1cccc(-c2ccc(N(C)C)cc2)c1` [Atglistatin, reference compound], the “inhibition of TAG hydrolase activity” value against rat ATGL (Atglistatin (Ai) 40 μM), in the test with marmoset ATGL (Atglistatin (Ai) 40 μM), at mouse ATGL (Atglistatin (Ai) 40 μM), with goat ATGL (Atglistatin (Ai) 40 μM) and in the test with dog ATGL (Atglistatin (Ai) 40 μM) was “inhibited” throughout.
